# Assay results published in a melting point compilation (Tetko et al.; mined from patent text by program, amines drawn as free bases though some values may be those of a salt).
row,melting point [°C],SMILES
1,145 to 147,CCCC(=O)OCCOc1ccc2oc3cc(C#N)ccc3c(=O)c2c1
2,110 to 111,CC(C)(C)OC(=O)C1CCNC1=S (configuration not stated)
3,153 to 154,CNC(=O)c1ccccc1I
4,170 to 172,CN1CCOc2nc(Cl)c(Cl)nc21
5,151 to 152,Cc1c(-c2ccccc2F)[nH]c(NCc2ccccc2)c1C#N
6,139 to 140,CCOC(=O)/C(=N\OC12CCC(CC1)CC2)c1csc(N)n1
7,146 to 148,CCCCCCOc1ccc(NC(=O)N(C)c2cccc(-c3ccc(CC4SC(=O)NC4=O)cc3)c2)cc1 (configuration not stated)
8,88,CCN(CC)CCNC(=O)c1nc(Cl)c(OC)nc1OC
9,232 to 234,O=C1c2ccccc2C(=O)c2sccc21
10,112 to 114,N#CC=C1CCN(c2ccc(N3C[C@@H](CN=[N+]=[N-])OC3=O)cc2F)CC1
11,49.5 to 50.4,CCCCCCCCCCc1ccc2cc(SC)c(OC)cc2c1
12,146 to 150,COC(=O)CCc1cc2cc(Cl)ccc2n1S(=O)(=O)c1cc(C)cc(C)c1
13,201 to 202,CC(Oc1ccc2c(=O)c(-c3ccccc3)coc2c1)C(=O)O (configuration not stated)
14,157 to 159,O=C(Nc1ccc(CCN2CCCCC2)cc1)C1=Cc2cc(-c3ccccc3)ccc2CC1
15,67,COC(=O)c1cc(I)c(O)c(C(C)(C)C)c1
16,153 to 154,COc1ccc(Nc2ccc(C(=O)O)cc2)c2ccccc12
17,115 to 116,O=S(=O)(NC1CCN(S(=O)(=O)c2cccs2)C1)c1ccc(Cl)cc1 (configuration not stated)
18,55 to 60,CC(C)(C)OC(=O)N1CC2CCCCC(C1)C2C=O (configuration not stated)
19,94 to 96,COc1cc([N+](=O)[O-])ccc1CBr
20,113 to 115,COc1ccc(NC(=O)c2ccccc2Cl)cc1
21,233,CC(=O)Nc1ccc(C(=O)O)c2c1OCCO2

row,melting point [°C],SMILES
1,78 to 82,COC(=O)OCC1OC(Oc2cc(C)cc(O)c2C(=O)CCc2ccc3occc3c2)C(O)C(O)C1O (configuration not stated)
2,172 to 173,COC(=O)CN(C=O)C1c2ccccc2CC1(C)C (configuration not stated)
3,> 250,Cn1c(C(=O)O)cc(=O)c2cc(O)c(=O)c(Br)cc21
4,> 250,O=c1ccc(S(=O)(=O)c2cc3ccc(F)cc3[nH]2)n[nH]1
5,150,COc1cc(C)cc(OC)c1-c1nc(=NO)c(=O)n(C)c2ccccc12
6,85,N#Cc1ccc(C(=O)c2ccc(F)cc2)c(CO)c1
7,224 to 226,CC(Br)C(=O)NS(=O)(=O)c1cccc2c1OC(C)(C)C2 (configuration not stated)
8,69 to 75,CCCCCCCCCCCCCCCCCNC(=O)Oc1cccc(N)c1
9,119 to 120,COc1ccc(-c2coc3ccc(-c4nnc(SCc5cccc(C(F)(F)F)c5)o4)cc23)cc1
10,150 to 153,Cc1ccc(NC(=O)c2snnc2C2CC2)cc1Cl
11,68 to 72,Cc1nc(-c2ccccc2)ncc1C(=O)c1ccccc1
12,166 to 167,CC(=O)c1c(C)[nH]c(Cc2ccccc2)c1C
13,130 to 135,O=C(CSC1c2ccccc2COc2ccc(OCc3ccc4ccc(Cl)cc4n3)cc21)NS(=O)(=O)c1ccccc1 (configuration not stated)
14,167 to 168,CC(C)Oc1ccc(OCc2ccccc2)cc1-c1nc2ccc(CO)nc2[nH]1
15,179,Cc1oncc1C(=O)Nc1ccc(NC(=O)CBr)cc1
16,177 to 179,N=c1n[n+]([O-])c2ccccc2n1OC(=O)c1ccccc1
17,86 to 88,CCOC(=O)CN1C(=O)[C@@H](NC(=O)OC(C)(C)C)CC(=O)c2ccccc21
18,> 300,COC(=O)C=Cc1[nH]c(=O)c2c(ccc3nc(Nc4c(Cl)cccc4Cl)n(C)c32)c1C
19,286 to 288,CC1(C)CCC(C)(C)c2nc3c(ccc4c(-c5ccc(C(=O)O)cc5)cn(Cc5cccnc5)c43)nc21
20,110 to 120,O=C([C@@H]1O[C@H]1c1ccccc1)N(CC1CC1)[C@@H]1CCCC[C@H]1O

row,SMILES,melting point [°C]
1,Ic1ccc(CCN2CCOCC2)cc1,64 to 67
